Test results as given in PMC5979531, “Structural Requirements of Alkylglyceryl-L-Ascorbic Acid Derivatives for Melanogenesis Inhibitory Activity” (International Journal of Molecular Sciences, 2018).

Assays:
[1] = Stability in aqueous solution at elevated temperature (HPLC residual ratio); format: physicochemical; conditions: 20 mg/mL at 125 °C in the dark, after 3 h
Description: To determine stability, the samples were stored at 125 °C, and the residual ratio was calculated by measuring the remaining compound by HPLC. HPLC mobile phase conditions were as follows: AsA was described previously, 6 and 20 were 40% methanol containing 0.1% formic acid at flow rate of 0.2 mL/min [52, 53].

B16 melanoma 4A5 cells = assay: Theophylline-stimulated melanogenesis inhibition (melanin content); format: cell-based, murine; conditions: for IC50: theophylline (1 mM)-stimulated B16 melanoma 4A5 cells
Description: (§1) The effects on theophylline-stimulated melanogenesis and viability of B16 melanoma 4A5 cells were examined according to previously described protocols. Briefly, murine B16 melanoma 4A5 cells were seeded into 48-well plates in DMEM. After 24 h of culture, a test compound and theophylline (1 mM) were added and incubated for 72 h. The melanin content and cell viability were then measured. IC50 values were determined graphically.
Inhibition (%) was calculated using the following formula, where A and B indicate the optical density of the vehicle- and test compound-treated groups, respectively, and C indicates cell viability (%) (see below): Inhibition (%) = [(A − B)/A]/(C/100) × 100.

[2] = Cell viability of B16 melanoma 4A5 cells; format: cell-based, murine; conditions: mouse, B16 4A5 cells
Description: as §1

TRP-2 mRNA = assay: Expression of TRP-2 mRNA (qRT-PCR); format: cell-based, murine; conditions: B16 4A5 cells, theophylline 1 mM, 72 h
Description: (§2) The expression of tyrosinase, TRP-1, and TRP-2 mRNA was assessed according to previously reported methods. Briefly, murine B16 melanoma 4A5 cells were seeded into 96-well plates in DMEM. After 24 h of culture, a test compound and theophylline (1 mM) were added and incubated for 72 h. Then, the amount of each mRNA was quantified by quantitative reverse transcription PCR.

tyrosinase mRNA = assay: Expression of tyrosinase mRNA (qRT-PCR); format: cell-based, murine; conditions: B16 4A5 cells, theophylline 1 mM, 72 h
Description: as §2

tyrosinase from mushroom = assay: Mushroom tyrosinase activity; format: biochemical
Description: Tyrosinase activities using L-tyrosine or L-DOPA as a substrate were determined according to the protocols described previously. Briefly, samples, L-tyrosine (2.5 mM, or L-DOPA, 3.0 mM), mushroom tyrosinase (46 units/mL), and phosphate buffer were mixed in a 96-well plate and incubated at 25 °C. (L-tyrosine; 30 min, L-DOPA; 5 min). The absorbance was then measured at 492 nm.

TRP-1 mRNA = assay: Expression of TRP-1 mRNA (qRT-PCR); format: cell-based, murine; conditions: B16 4A5 cells, theophylline 1 mM, 72 h
Description: as §2

tyrosinase protein = assay: Expression of tyrosinase protein (western blotting); format: cell-based, murine; conditions: B16 4A5 cells, theophylline 1 mM, 72 h
Description: The expression of tyrosinase protein was assessed according to a previously reported method. Briefly, murine B16 melanoma 4A5 cells were seeded into 6-well plates in DMEM. After 24 h of culture, a test compound and theophylline (1 mM) were added and incubated for 72 h. The expression of tyrosinase protein then was measured by western blotting.

[3] = Mus musculus, theophylline-stimulated B16 4A5 cells, 72 h

SMILES	IC50 (B16 melanoma 4A5 cells; Mus musculus, 72 h) [µM]	Inhibition (%) of mushroom tyrosinase (tyrosinase from mushroom; Substrate: L-DOPA, 10 µM) [%]	Inhibition (%) of mushroom tyrosinase (tyrosinase from mushroom; Substrate: L-DOPA, 30 µM) [%]	Inhibition (%) of mushroom tyrosinase (tyrosinase from mushroom; Substrate: L-Tyrosine, 10 µM) [%]	Inhibition (%) of mushroom tyrosinase (tyrosinase from mushroom; Substrate: L-Tyrosine, 30 µM) [%]	inhibition at 3 µM (B16 melanoma 4A5 cells; [3]) [%]	inhibition at 10 µM (B16 melanoma 4A5 cells; [3]) [%]	inhibition at 30 µM (B16 melanoma 4A5 cells; [3]) [%]	inhibition at 100 µM (B16 melanoma 4A5 cells; [3]) [%]	viability at 72 h, 3 µM [2] [%]	viability at 72 h, 10 µM [2] [%]	viability at 72 h, 30 µM [2] [%]	viability at 72 h, 100 µM [2] [%]	also measured
O=C1O[C@H]([C@@H](O)CO)C(O)=C1O [AsA, L-ascorbic acid]	> 3000	–	–	–	–	–	–	–	–	–	–	–	–	Residual ratio in aqueous solution [1]: 9%; inhibition at 1000 µM (B16 melanoma 4A5 cells; [3]): -17.4 ± 4%; inhibition at 3000 µM (B16 melanoma 4A5 cells; [3]): 3.8 ± 4.7%; viability at 72 h, 1000 µM [2]: 104%; viability at 72 h, 3000 µM [2]: 89.2%
CCCCCCCCCCCCCCOC1=C(OCC(O)CO)[C@@H]([C@@H](O)CO)OC1=O (stereo partly shown) [compound 14, 3-O-(2,3-dihydroxypropyl)-2-O-tetradecyl-AsA]	11.1	−8.9 ± 3.5	−8.2 ± 4.3	−7.0 ± 6.7	−9.7 ± 2.7	6.3 ± 2.6	48.4 ± 2.2	97.6 ± 1.8	100 ± 18.2	101	89.1	56.3	21	TRP-2 mRNA/β-actin mRNA (TRP-2 mRNA; 3 µM): 0.58 ± 0.06; Tyrosinase mRNA/β-actin mRNA (tyrosinase mRNA; 3 µM): 0.78 ± 0.10; TRP-1 mRNA/β-actin mRNA (TRP-1 mRNA; 3 µM): 1.02 ± 0.27; TRP-1 mRNA/β-actin mRNA (TRP-1 mRNA; 10 µM): 0.92 ± 0.22
CCCCCCOC1=C(OCC(O)CO)C(=O)O[C@@H]1[C@@H](O)CO (stereo partly shown) [compound 20, 2-O-(2,3-dihydroxypropyl)-3-O-hexyl-AsA]	117	–	−5.7 ± 5.1	–	1.4 ± 4.7	–	–	–	43.5 ± 2.6	–	–	–	95.3	Residual ratio in aqueous solution [1]: 82%; TRP-2 mRNA/β-actin mRNA (TRP-2 mRNA; 30 µM): 1.07 ± 0.30; TRP-2 mRNA/β-actin mRNA (TRP-2 mRNA; 100 µM): 0.88 ± 0.25; inhibition at 300 µM (B16 melanoma 4A5 cells; Mus musculus, 300 µM, theophylline-stimulated B16 4A5 cells, 72 h): 77 ± 2.1%; inhibition at 1000 µM (B16 melanoma 4A5 cells; [3]): 94.9 ± 1.5%; inhibition at 3000 µM (B16 melanoma 4A5 cells; [3]): 80.9 ± 4.1%; expression of tyrosinase protein (in words) (tyrosinase protein): suppressed tyrosinase protein expression in a concentration-dependent manner; Tyrosinase mRNA/β-actin mRNA (tyrosinase mRNA; 30 µM): 0.72 ± 0.10; Inhibition (%) of mushroom tyrosinase (tyrosinase from mushroom; Substrate: L-DOPA, 100 µM): −2.4 ± 4.2%; Inhibition (%) of mushroom tyrosinase (tyrosinase from mushroom; Substrate: L-Tyrosine, 100 µM): −6.1 ± 0.6%; viability at 72 h, 300 µM ([2]; 300 µM): 83.9%; viability at 72 h, 1000 µM [2]: 60.8%; viability at 72 h, 3000 µM [2]: 44.7%; TRP-1 mRNA/β-actin mRNA (TRP-1 mRNA; 30 µM): 0.67 ± 0.12
CCCCCCCCCCOC1=C(OCC(O)CO)C(=O)O[C@@H]1[C@@H](O)CO (stereo partly shown) [compound 24, 3-O-decyl-2-O-(2,3-dihydroxypropyl)-AsA]	23.5	0.7 ± 3.8	−5.3 ± 4.2	−4.1 ± 5.3	−3.1 ± 4.1	-5.8 ± 6	20.9 ± 5.4	64.3 ± 3.8	103 ± 2.4	92.5	87.1	68.5	34.3	–

The next lines start with results.

IC50 (B16 melanoma 4A5 cells; Mus musculus, 72 h) [µM]	Inhibition (%) of mushroom tyrosinase (tyrosinase from mushroom; Substrate: L-DOPA, 10 µM) [%]	Inhibition (%) of mushroom tyrosinase (tyrosinase from mushroom; Substrate: L-DOPA, 30 µM) [%]	Inhibition (%) of mushroom tyrosinase (tyrosinase from mushroom; Substrate: L-Tyrosine, 10 µM) [%]	Inhibition (%) of mushroom tyrosinase (tyrosinase from mushroom; Substrate: L-Tyrosine, 30 µM) [%]	SMILES	inhibition at 3 µM (B16 melanoma 4A5 cells; [3]) [%]	inhibition at 10 µM (B16 melanoma 4A5 cells; [3]) [%]	inhibition at 30 µM (B16 melanoma 4A5 cells; [3]) [%]	inhibition at 100 µM (B16 melanoma 4A5 cells; [3]) [%]	viability at 72 h, 3 µM [2] [%]	viability at 72 h, 10 µM [2] [%]	viability at 72 h, 30 µM [2] [%]	viability at 72 h, 100 µM [2] [%]	also measured
18.1	−10.2 ± 2.3	−10.7 ± 3.8	−8.0 ± 0.6	−8.7 ± 1.5	CCCCCCCCCCCOC1=C(OCC(O)CO)C(=O)O[C@@H]1[C@@H](O)CO (stereo partly shown) [compound 25, 2-O-(2,3-dihydroxypropyl)-3-O-undecyl-AsA]	-5.1 ± 2.3	26.6 ± 3	85 ± 3.8	101 ± 10.1	101	85.8	53.6	24	–
12.1	−6.4 ± 3.1	−6.6 ± 8.7	−2.2 ± 6.4	−0.5 ± 4.3	CCCCCCCCCCCCOC1=C(OCC(O)CO)C(=O)O[C@@H]1[C@@H](O)CO (stereo partly shown) [compound 26, 2-O-(2,3-dihydroxypropyl)-3-O-dodecyl-AsA]	14.1 ± 8.5	46 ± 3	96.2 ± 2.8	89.6 ± 24.4	99.8	87.3	45.5	24.3	–
11.7	−2.0 ± 3.3	−3.2 ± 2.7	−3.3 ± 8.1	−5.4 ± 1.9	CCCCCCCCCCCCCOC1=C(OCC(O)CO)C(=O)O[C@@H]1[C@@H](O)CO (stereo partly shown) [compound 27, 2-O-(2,3-dihydroxypropyl)-3-O-tridecyl-AsA]	20.1 ± 5.7	44.2 ± 3.9	96.6 ± 3	113 ± 10.1	105	84.3	40.2	21	–
5	−5.7 ± 9.5	−8.1 ± 5.2	−4.4 ± 4.6	−8.4 ± 1.0	CCCCCCCCCCCCCCOC1=C(OCC(O)CO)C(=O)O[C@@H]1[C@@H](O)CO (stereo partly shown) [compound 28, 2-O-(2,3-dihydroxypropyl)-3-O-tetradecyl-AsA]	32.8 ± 7.2	75.7 ± 3.9	95.9 ± 8.4	95.2 ± 20.7	85.1	62.6	23	18.1	TRP-2 mRNA/β-actin mRNA (TRP-2 mRNA; 3 µM): 0.43 ± 0.11; potency relative to arbutin (melanogenesis inhibition) (B16 melanoma 4A5 cells; ratio of IC50 values vs arbutin): more than 166 fold; Tyrosinase mRNA/β-actin mRNA (tyrosinase mRNA; 3 µM): 0.54 ± 0.03; TRP-1 mRNA/β-actin mRNA (TRP-1 mRNA; 3 µM): 0.88 ± 0.20; TRP-1 mRNA/β-actin mRNA (TRP-1 mRNA; 10 µM): 0.83 ± 0.27
